Test results taken from PubChem BioAssay (NCI).
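Each compound was tested at five concentrations against cells in 96-well plates for 48 hours. Definition used: TGI = concentration required for complete inhibition of growth.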

What follows are compounds tested on SF-268 CNS (assay: NCI tumour cell line growth inhibition, 48 h).

Point of comparison: CC1S/C(=N\N=C2/C(=O)Nc3ccc(Br)cc32)N(C2CCCCC2)C1=O (stereo not drawn), TGI 22.3 µM. Against it:
- CC(=O)O[C@H]1C(=O)[C@@]2(C)C(C(OC(=O)c3ccccc3)[C@]3(O)CC(OC(=O)C(O)C(NC(=O)c4ccc(C(F)(F)F)cc4)c4ccccc4)C(C)=C1C3(C)C)[C@]1(OC(C)=O)CO[C@@H]1C[C@@H]2O (stereo partly drawn) — 4.2-fold lower, 5.3 µM
- COC(=O)CC1N=C(NC#N)N(CCc2c[nH]c3ccccc23)C1=O (stereo not drawn) — higher, > 100 µM
- Nc1nc(-c2ccccc2)cc(-c2ccc(OCc3ccccc3)cc2O)n1 — higher, > 100 µM
- CCOC(=O)c1cn2c(n1)sc1cc(Cl)ccc12 — higher, > 100 µM
- Cn1c(O)c(C(=O)NC2CCCCC2)c(=O)n(C)c1=S — within 1.5-fold, 21.6 µM
- CCN1CCN(c2nc3ccccc3c3c2CCOc2ccccc2-3)CC1 — higher, > 100 µM
- Nc1nc([O-])c2c(n1)[n+](C1OC(CO)C(O)C1O)cn2CCO (stereo not drawn) — higher, > 100 µM
- O=C(NCP(=O)(c1ccccc1)c1ccccc1)OCc1ccccc1 — higher, > 100 µM
- CCOC(C)O[C@H]1C(=O)OCC1(C)C (stereo partly drawn) — higher, > 100 µM
- CC(CC[C@@]1(C)C(=O)CCC2O[C@]21C)[C@H]1C[C@@H](c2ccoc2)OC1=O (stereo partly drawn) — 4.2-fold higher, 94.6 µM
- O=Cc1ccccc1COC(=O)c1cc(C(=O)OCc2ccccc2C=O)c(C(=O)OCc2ccccc2C=O)cc1C(=O)OCc1ccccc1C=O — higher, > 100 µM
- CCOC1=NC(O)c2cccn2-c2sccc21 (stereo not drawn) — higher, > 100 µM
- COC(=O)c1cc2c(cc1CC(Cc1ccc3c(c1)CCCC3)C(=O)OC)CCCC2 (stereo not drawn) — higher, > 100 µM
- O=C1c2ccsc2C(=O)c2sc(CO)cc21 — 9.7-fold lower, 2.31 µM
- O=C(c1cccs1)N1CCc2ccccc2C1 — higher, > 100 µM
- CN(C)CC1CCCC(CN(C)C)C1OC(=O)c1ccccc1 (stereo not drawn) — higher, > 100 µM
- CCCCC1Cc2ccccc2-c2nc3ccccc3n21 (stereo not drawn) — within 1.5-fold, 33 µM
- Cc1cc(N(CCC#N)CCC#N)ccc1/C=C(\NC(=O)/C=C/c1ccccc1)C(N)=O — higher, > 100 µM
- CCC(=O)Oc1ccc2c(c1)c(=O)c1c(NCCCN(C)C)ccc3nnn2c31 — within 1.5-fold, 17.2 µM
- Cc1ccc(S(=O)(=O)N/N=C2/CCCOC2)cc1 — higher, > 100 µM
- C[Si](C)(C)OC1CC(=O)OC1n1cc(F)c(=O)[nH]c1=O (stereo not drawn) — higher, > 100 µM
- CCOC(=O)C1C(=O)CC1(C)C (stereo not drawn) — not separable, > 10 µM

These compounds were tested on SF-295 CNS (assay: NCI tumour cell line growth inhibition, 48 h).

Point of comparison: CC(=O)O[C@H]1C(=O)[C@@]2(C)C(C(OC(=O)c3ccccc3)[C@]3(O)CC(OC(=O)C(O)C(NC(=O)c4ccc(C(F)(F)F)cc4)c4ccccc4)C(C)=C1C3(C)C)[C@]1(OC(C)=O)CO[C@@H]1C[C@@H]2O (stereo partly drawn), TGI 1.79 µM. Against it:
- O=c1cc(-c2ccc(Oc3ccccc3)cc2)[nH]c2cc3c(cc12)OCO3 — higher, > 100 µM
- CCOC(=O)CC(C)C1(C(=O)OCC)CCCCC1=O (stereo not drawn) — higher, > 100 µM
- O=C(N/N=C\C=C\c1ccc([N+](=O)[O-])o1)C(=O)N/N=C\C=C\c1ccc([N+](=O)[O-])o1 — higher, > 100 µM
- COC(=O)CC1N=C(NC#N)N(CCc2c[nH]c3ccccc23)C1=O (stereo not drawn) — higher, > 100 µM
- Nc1nc(-c2ccccc2)cc(-c2ccc(OCc3ccccc3)cc2O)n1 — higher, > 100 µM
- CCOC(=O)c1cn2c(n1)sc1cc(Cl)ccc12 — higher, > 100 µM
- Cn1c(O)c(C(=O)NC2CCCCC2)c(=O)n(C)c1=S — 9.9-fold higher, 17.8 µM
- CCN1CCN(c2nc3ccccc3c3c2CCOc2ccccc2-3)CC1 — higher, > 63 µM
- Nc1nc([O-])c2c(n1)[n+](C1OC(CO)C(O)C1O)cn2CCO (stereo not drawn) — higher, > 100 µM
- O=C(NCP(=O)(c1ccccc1)c1ccccc1)OCc1ccccc1 — higher, > 100 µM
- CCOC(C)O[C@H]1C(=O)OCC1(C)C (stereo partly drawn) — higher, > 100 µM
- CC(CC[C@@]1(C)C(=O)CCC2O[C@]21C)[C@H]1C[C@@H](c2ccoc2)OC1=O (stereo partly drawn) — higher, > 100 µM
- O=Cc1ccccc1COC(=O)c1cc(C(=O)OCc2ccccc2C=O)c(C(=O)OCc2ccccc2C=O)cc1C(=O)OCc1ccccc1C=O — higher, > 100 µM
- CCOC1=NC(O)c2cccn2-c2sccc21 (stereo not drawn) — higher, > 100 µM
- COC(=O)c1cc2c(cc1CC(Cc1ccc3c(c1)CCCC3)C(=O)OC)CCCC2 (stereo not drawn) — higher, > 100 µM
- O=C1c2ccsc2C(=O)c2sc(CO)cc21 — 1.9-fold lower, 0.951 µM
- O=C(c1cccs1)N1CCc2ccccc2C1 — higher, > 100 µM
- CC1S/C(=N\N=C2/C(=O)Nc3ccc(Br)cc32)N(C2CCCCC2)C1=O (stereo not drawn) — 9.4-fold higher, 16.8 µM
- CN(C)CC1CCCC(CN(C)C)C1OC(=O)c1ccccc1 (stereo not drawn) — higher, > 100 µM
- CCCCC1Cc2ccccc2-c2nc3ccccc3n21 (stereo not drawn) — 17-fold higher, 30.8 µM
- Cc1cc(N(CCC#N)CCC#N)ccc1/C=C(\NC(=O)/C=C/c1ccccc1)C(N)=O — higher, > 100 µM
- CCC(=O)Oc1ccc2c(c1)c(=O)c1c(NCCCN(C)C)ccc3nnn2c31 — 9.7-fold higher, 17.3 µM
- Cc1ccc(S(=O)(=O)N/N=C2/CCCOC2)cc1 — higher, > 100 µM
- C[Si](C)(C)OC1CC(=O)OC1n1cc(F)c(=O)[nH]c1=O (stereo not drawn) — higher, > 100 µM
- CCOC(=O)C1C(=O)CC1(C)C (stereo not drawn) — higher, > 10 µM

These compounds were tested on SF-539 CNS (assay: NCI tumour cell line growth inhibition, 48 h).

Point of comparison: CCOC(=O)c1cn2c(n1)sc1cc(Cl)ccc12, TGI 26 µM. Against it:
- O=c1cc(-c2ccc(Oc3ccccc3)cc2)[nH]c2cc3c(cc12)OCO3 — higher, > 100 µM
- CCOC(=O)CC(C)C1(C(=O)OCC)CCCCC1=O (stereo not drawn) — higher, > 100 µM
- O=C(N/N=C\C=C\c1ccc([N+](=O)[O-])o1)C(=O)N/N=C\C=C\c1ccc([N+](=O)[O-])o1 — higher, > 100 µM
- CC(=O)O[C@H]1C(=O)[C@@]2(C)C(C(OC(=O)c3ccccc3)[C@]3(O)CC(OC(=O)C(O)C(NC(=O)c4ccc(C(F)(F)F)cc4)c4ccccc4)C(C)=C1C3(C)C)[C@]1(OC(C)=O)CO[C@@H]1C[C@@H]2O (stereo partly drawn) — 40-fold lower, 0.65 µM
- COC(=O)CC1N=C(NC#N)N(CCc2c[nH]c3ccccc23)C1=O (stereo not drawn) — higher, > 100 µM
- Nc1nc(-c2ccccc2)cc(-c2ccc(OCc3ccccc3)cc2O)n1 — higher, > 100 µM
- Cn1c(O)c(C(=O)NC2CCCCC2)c(=O)n(C)c1=S — within 1.5-fold, 21.4 µM
- CCN1CCN(c2nc3ccccc3c3c2CCOc2ccccc2-3)CC1 — higher, > 65.2 µM
